From US10865208B2, “ATG7 inhibitors and the uses thereof” (Millennium Pharmaceuticals, Inc., priority 2016, dated 2020)

Biological target: recombinant human His-ATG7 enzyme (Homo sapiens (Human), UniProt O95352)
Assay: ATG7 Enzyme Assay (HTRF/FRET, ATG3-GST and Flag-Gabarap)
Assay type: biochemical
Conditions: for inhibition at 0.111 µM: Concentration 0.111 μM; for inhibition at 0.111 µM / inhibition at 0.123 µM: read-out: Percent Inhibition; for inhibition at 0.123 µM: Concentration 0.123 μM
Method in brief: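 0.15 nM His-ATG7 was reacted with 5 nM ATG3-GST, 5 nM Flag-Gabarap and 10 μM ATP in HEPES pH 7.5 containing MgCl2, GSH and TCEP for 105 min at 24° C, then stopped with EDTA/KF. Eu-anti-Flag and anti-GST-APC HTRF was read after 2 h. Results are given as single-concentration % inhibition or IC50.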

recombinant human His-ATG7 enzyme, sequence (O95352 whole entry): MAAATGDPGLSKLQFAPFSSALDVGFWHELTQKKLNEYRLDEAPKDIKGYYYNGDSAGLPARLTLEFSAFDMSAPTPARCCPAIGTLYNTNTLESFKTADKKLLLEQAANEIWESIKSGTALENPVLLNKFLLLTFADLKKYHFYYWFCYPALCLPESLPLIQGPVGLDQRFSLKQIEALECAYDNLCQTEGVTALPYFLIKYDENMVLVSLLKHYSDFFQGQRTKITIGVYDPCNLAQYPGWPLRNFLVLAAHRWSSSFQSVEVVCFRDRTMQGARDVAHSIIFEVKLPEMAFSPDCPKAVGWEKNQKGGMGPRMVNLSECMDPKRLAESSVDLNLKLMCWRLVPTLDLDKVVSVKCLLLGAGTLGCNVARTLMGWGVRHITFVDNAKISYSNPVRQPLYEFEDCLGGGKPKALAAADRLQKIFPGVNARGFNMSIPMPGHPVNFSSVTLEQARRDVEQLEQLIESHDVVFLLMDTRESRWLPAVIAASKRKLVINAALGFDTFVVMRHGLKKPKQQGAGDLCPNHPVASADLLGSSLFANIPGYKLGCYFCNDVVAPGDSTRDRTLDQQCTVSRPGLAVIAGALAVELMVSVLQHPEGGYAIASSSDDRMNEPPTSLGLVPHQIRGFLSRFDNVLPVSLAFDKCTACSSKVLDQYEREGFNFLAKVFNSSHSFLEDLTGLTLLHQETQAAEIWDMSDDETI

| Compound | IC50 | inhibition at 0.111 µM | inhibition at 0.123 µM |
| --- | --- | --- | --- |
| Nc1ncnc2c1c(Sc1cccnc1)nn2[C@@H]1O[C@H](COS(N)(=O)=O)[C@@H](O)[C@@H]1F [Compound I-138, {(2R,3R,4S,5R)-5-[4-amino-3-(pyridin-3-ylsulfanyl)-1H-pyrazolo[3,4-d]pyrimidin-1-yl]-4-fluoro-3-hydroxytetrahydrofuran-2-yl}methyl sulfamate] | 0.05 to 0.1 µM | 64% | – |
| Nc1ncnc2c1c(SC(F)(F)F)nn2[C@@H]1O[C@H](COS(N)(=O)=O)[C@@H](O)[C@@H]1F [Compound I-142, [(2R,3R,4S,5R)-5-{4-amino-3-[(trifluoromethyl)sulfanyl]-1H-pyrazolo[3,4-d]pyrimidin-1-yl}-4-fluoro-3-hydroxytetrahydrofuran-2-yl]methyl sulfamate] | 0.05 to 0.1 µM | 57% | – |
| Nc1ncnc2c1c(Sc1ccc(C(F)(F)F)cn1)nn2[C@@H]1O[C@H](COS(N)(=O)=O)[C@@H](O)[C@@H]1F [Compound I-143, [(2R,3R,4S,5R)-5-(4-amino-3-{[5-(trifluoromethyl)pyridin-2-yl]sulfanyl}-1H-pyrazolo[3,4-d]pyrimidin-1-yl)-4-fluoro-3-hydroxytetrahydrofuran-2-yl]methyl sulfamate] | 0.05 to 0.1 µM | 68% | – |
| Cn1cc(CSc2nn([C@@H]3O[C@H](COS(N)(=O)=O)[C@@H](O)[C@@H]3F)c3ncnc(N)c23)cn1 [Compound I-145, [(2R,3R,4S,5R)-5-(4-amino-3-{[(1-methyl-1H-pyrazol-4-yl)methyl]sulfanyl}-1H-pyrazolo[3,4-d]pyrimidin-1-yl)-4-fluoro-3-hydroxytetrahydrofuran-2-yl]methyl sulfamate] | 0.02 to 0.05 µM | 74% | – |
| Nc1ncnc2c1c(Sc1ccc(Cl)cn1)nn2[C@@H]1O[C@H](COS(N)(=O)=O)[C@@H](O)[C@@H]1F [Compound I-146, [(2R,3R,4S,5R)-5-{4-amino-3-[(5-chloropyridin-2-yl)sulfanyl]-1H-pyrazolo[3,4-d]pyrimidin-1-yl}-4-fluoro-3-hydroxytetrahydrofuran-2-yl]methyl sulfamate] | 0.02 to 0.05 µM | 86% | – |
| Nc1ncnc2c1c(Sc1ccncc1)nn2[C@@H]1O[C@H](COS(N)(=O)=O)[C@@H](O)[C@@H]1F [Compound I-150, {(2R,3R,4S,5R)-5-[4-amino-3-(pyridin-4-ylsulfanyl)-1H-pyrazolo[3,4-d]pyrimidin-1-yl]-4-fluoro-3-hydroxytetrahydrofuran-2-yl}methyl Sulfamate] | 0.1 to 0.5 µM | 46% | – |
| Nc1ncnc2c1c(SCCO)nn2[C@@H]1O[C@H](COS(N)(=O)=O)[C@@H](O)[C@@H]1F [Compound I-151, [(2R,3R,4S,5R)-5-{4-amino-3-[(2-hydroxyethyl)sulfanyl]-1H-pyrazolo[3,4-d]pyrimidin-1-yl}-4-fluoro-3-hydroxytetrahydrofuran-2-yl]methyl Sulfamate] | – | 76% | – |
| N#Cc1cccc(Sc2nn([C@@H]3O[C@H](COS(N)(=O)=O)[C@@H](O)[C@@H]3F)c3ncnc(N)c23)c1 [Compound I-153, [(2R,3R,4S,5R)-5-{4-amino-3-[(3-cyanophenyl)sulfanyl]-1H-pyrazolo[3,4-d]pyrimidin-1-yl}-4-fluoro-3-hydroxytetrahydrofuran-2-yl]methyl sulfamate] | 0.05 to 0.1 µM | 58% | – |
| COCCSc1nn([C@@H]2O[C@H](COS(N)(=O)=O)[C@@H](O)[C@@H]2F)c2ncnc(N)c12 [Compound I-154, [(2R,3R,4S,5R)-5-{4-amino-3-[(2-methoxyethyl)sulfanyl]-1H-pyrazolo[3,4-d]pyrimidin-1-yl}-4-fluoro-3-hydroxytetrahydrofuran-2-yl]methyl sulfamate] | 0.05 to 0.1 µM | 64% | – |
| Nc1ncnc2c1c(SCc1ccccc1)nn2[C@@H]1O[C@H](COS(N)(=O)=O)[C@@H](O)[C@@H]1F [Compound I-155, {(2R,3R,4S,5R)-5-[4-amino-3-(benzylsulfanyl)-1H-pyrazolo[3,4-d]pyrimidin-1-yl]-4-fluoro-3-hydroxytetrahydrofuran-2-yl}methyl sulfamate] | 0.02 to 0.05 µM | – | 75% |
| Nc1ncnc2c1c(Sc1nnc3ccccn13)nn2[C@@H]1O[C@H](COS(N)(=O)=O)[C@@H](O)[C@@H]1F [Compound I-156, {(2R,3R,4S,5R)-5-[4-amino-3-([1,2,4]triazolo[4,3-a]pyridin-3-ylsulfanyl)-1H-pyrazolo[3,4-d]pyrimidin-1-yl]-4-fluoro-3-hydroxytetrahydrofuran-2-yl}methyl sulfamate] | 0.1 to 0.5 µM | 30% | – |

Continued, values first:

| IC50 | inhibition at 0.111 µM | inhibition at 0.123 µM | Compound |
| --- | --- | --- | --- |
| 0.02 to 0.05 µM | 80% | – | Cn1cnc(Sc2nn([C@@H]3O[C@H](COS(N)(=O)=O)[C@@H](O)[C@@H]3F)c3ncnc(N)c23)c1 [Compound I-137, [(2R,3R,4S,5R)-5-{4-amino-3-[(1-methyl-1H-imidazol-4-yl)sulfanyl]-1H-pyrazolo[3,4-d]pyrimidin-1-yl}-4-fluoro-3-hydroxytetrahydrofuran-2-yl]methyl sulfamate] |
| 0.02 to 0.05 µM | 84% | – | CC(C)Sc1nn([C@@H]2O[C@H](COS(N)(=O)=O)[C@@H](O)[C@@H]2F)c2ncnc(N)c12 [Compound I-139, {(2R,3R,4S,5R)-5-[4-amino-3-(isopropylsulfanyl)-1H-pyrazolo[3,4-d]pyrimidin-1-yl]-4-fluoro-3-hydroxytetrahydrofuran-2-yl}methyl Sulfamate] |
| 0.02 to 0.05 µM | 75% | – | CC1CC1CSc1nn([C@@H]2O[C@H](COS(N)(=O)=O)[C@@H](O)[C@@H]2F)c2ncnc(N)c12 (some centres unmarked) [Compound I-140] |
| 0.02 to 0.05 µM | – | 76% | Cc1cccc(Sc2nn([C@@H]3O[C@H](COS(N)(=O)=O)[C@@H](O)[C@@H]3F)c3ncnc(N)c23)c1 [Compound I-141, [(2R,3R,4S,5R)-5-{4-amino-3-[(3-methylphenyl)sulfanyl]-1H-pyrazolo[3,4-d]pyrimidin-1-yl}-4-fluoro-3-hydroxytetrahydrofuran-2-yl]methyl Sulfamate] |
| < 0.02 µM | 89% | – | Nc1ncnc2c1c(SC1CCC1)nn2[C@@H]1O[C@H](COS(N)(=O)=O)[C@@H](O)[C@@H]1F [Compound I-147, {(2R,3R,4S,5R)-5-[4-amino-3-(cyclobutylsulfanyl)-1H-pyrazolo[3,4-d]pyrimidin-1-yl]-4-fluoro-3-hydroxytetrahydrofuran-2-yl}methyl sulfamate] |
| < 0.02 µM | 83% | – | Nc1ncnc2c1c(SCC1CCC1)nn2[C@@H]1O[C@H](COS(N)(=O)=O)[C@@H](O)[C@@H]1F [Compound I-148, [(2R,3R,4S,5R)-5-{4-amino-3-[(cyclobutylmethyl)sulfanyl]-1H-pyrazolo[3,4-d]pyrimidin-1-yl}-4-fluoro-3-hydroxytetrahydrofuran-2-yl]methyl sulfamate] |
| < 0.02 µM | 88% | – | Cc1ccc(Sc2nn([C@@H]3O[C@H](COS(N)(=O)=O)[C@@H](O)[C@@H]3F)c3ncnc(N)c23)nc1 [Compound I-152, [(2R,3R,4S,5R)-5-{4-amino-3-[(5-methylpyridin-2-yl)sulfanyl]-1H-pyrazolo[3,4-d]pyrimidin-1-yl}-4-fluoro-3-hydroxytetrahydrofuran-2-yl]methyl sulfamate] |
